Test results as given in ChEMBL document CHEMBL5257019, “An Overview of Severe Acute Respiratory Syndrome-Coronavirus (SARS-CoV) 3CL Protease Inhibitors: Peptidomimetics and Small Molecule Chemotherapy” (J Med Chem, 2016).

Test: Inhibition of SARS-CoV-2 3CL protease Q189A mutant by FRET assay
Set-up: species or system Severe acute respiratory syndrome coronavirus 2

O=c1c(O[C@@H]2OC(O)[C@@H](O)[C@H](O)[C@@H]2O)c(-c2ccc(O)c(O)c2)oc2cc(O)cc(O)c12 (stereo partly specified)
IC50: 24.1 µM
